# According to patent US7919481B2, “Inositol pyrophosphates, and methods of use thereof” (NormOxys, Inc., priority 2002, dated 2011):
# “And” between values parts separate entries of the source, which are not always exact repeats. Equal values may be shown once. “Also recorded” adds a separate entry of the source.
# How the values were obtained:
# human RBCs = details: IHP encapsulated in human RBCs by continuous-flow electroporation; cited from earlier work
# RBC [1] = assay: Blood counts of orally treated mice; format: in vivo, C57BL/6 mice; details: for RBC × 10^6/mm3: day 7, single mice, oral 27 mM for 4 days
# From the text: Blood from mice, having ingested kf111 or IHP in water (for 4 days) or water only was collected on day 0, 7 and 11, in order to assess any differences in the blood count (and the amount of erythropoietin in the sera) of treated and control mice. […] Erythropoietin assays in all mice sera will be reported soon.
# circulating RBC [2] = assay: Oral administration in drinking water, P50 of circulating RBC; format: in vivo, C57BL/6 mice; details: for P50 10 d %: P50 shift on day 10, single mice
# [3] = constant concentration 22 mM, human serum/1-octanol; cited from earlier work
# RBC [4] = assay: Blood counts of orally treated mice; format: in vivo, C57BL/6 mice; details: day 10, single mice; oral 27 mM for 4 days
# [5] = Blood counts and serum electrolytes of iv treated piglets; format: in vivo, piglet
# From the text: Blood from the 2 piglets, having received kf111 (1 g/kg body weight) was collected before injection, 2 hrs after, and daily over a period of 14 days after injection, in order to assess any differences in the blood counts of treated and non treated piglets. The following conclusions for piglets having received 1 g kf111 per kg body weight can be drawn: • 1. […] Increasing numbers of reticulocytes were counted in blood samples of the injected animals taken 5-14 days after injection (up to 3.0% on day 14). • 4.
# Blood was taken from the heart of the dead animals for the determination of blood counts as well as the amount of sodium, potassium and calcium in the sera. All numbers of blood cells (hematocrit, white blood cells etc.) were halved. The amount of potassium and calcium was normal, while sodium was doubled (before injection: 120-140 mmol/L; after injection: 245 mmol/L). Apparently, the large amount of sodium in kf111 (6 Na^+/molecule) caused the death of the animals. It appears that up to 1 g kf111 per kg body weight can be injected iv, (if injected slowly) without harmful effects for the animals. […] The piglets were thirsty after the treatment. *a second piglets was injected with kf111 at this concentration, after 2 piglets had died after iv injection of 1.2 g kf111 (or even more) per kg body weight. • 2. Higher amounts of kf111, injected via iv, killed the animals. • 3. A 1 g kf111 per kg body weight—injection is necessary to cause a significant right shift of the P50 value (up to 20%). • 4. […] In piglets having received 1 g of kf111/kg body weight, a tendency to the decrease in hematocrit was observed. • 6. […] The number of reticulocytes decreased slightly 24 to 72 hrs after injection (from 1.5% to 0.5%). Starting with day 3 after injection of the allosteric effector, the number of reticulocytes increased by about 3% for a period of 14 days.
# porcine RBCs = assay: Intravenous injection in piglets, P50 of blood; format: in vivo, piglet; details: iv injection of 1 g/kg body weight; maximum
# Procedure: (§1) An in vivo-experiment was performed on one 8 week-old normal piglet (body weight: 17 kg). The piglet was anaesthesized with 5% Isoflurane, 0.7 L/min N2O and 2.0 L/min O2 for 20-30 minutes, when kf111 was injected, or blood was taken from the ear vein, respectively. The compound injected iv at a concentration of 27 g kf111/100 ml water (volume injected: 63 ml, pH 6.5, containing 17 g kf111=1 g/1 kg body weight) was not harmful to the animal, when injected into the piglet's ear vein over at least 10 minutes.
# (§2) Iv injection of 1 g kf111/kg body weight caused a significant right shift of the P50-value (up to 20%) in porcine RBCs. An almost saturated kf111 solution, pH 6.7, was injected intravenously into two piglets (both of ˜18 kg body weight) (27 g kf111/100 ml=1.5 g/kg body weight) over 20 minutes.
# [6] = Toxicity, general statements on the biological experiments; format: in vivo
# piglets = assay: Tolerability / lethality of iv injection in piglets; format: in vivo, piglet
# Procedure: as §1, §2
# whole blood = assay: In vitro incubation of whole blood of three species, summary statements; format: cell-based, human, mouse and pig
# Procedure: (§3) As usual, pH's for the compound-solutions were adjusted to ˜7.0, osmolarities for both solutions were determined (325-373 mOsM) prior to effectors, and whole blood volumes at 1:1 ratios were incubated.
# mouse whole blood = assay: In vitro P50 in whole blood after incubation with effector; format: cell-based; details: effector 60 mM
# Procedure: as §3
# human whole blood = assay: as above; format: cell-based; details: effector 60 mM
# Procedure: as §3
# pig whole blood = assay: as above; format: cell-based; details: effector 60 mM
# Procedure: as §3
# C57BL/6 mice [7] = assay: Tolerability of oral administration; format: in vivo; details: 27 mM in drinking water, 4 days
# Procedure: The sodium salt of the tri-pyrophosphate derivative of IHP (kf111) was dissolved in drinking (not deionized) water at a 20 g/L-concentration (=27 mM) and offered for drinking ad libitum. As in all experiments performed before, pH was adjusted to ˜7.0.
# Twelve C57BL/6 mice drank kf111 over 4 days ([…]). Three control mice drank either pure water, or a solution of IHP (inositol hexaphosphate) at the same concentration and pH as kf111 (4 mice). […] Blood was collected from the tail vein of the 19 C57BL/6 mice on day 0 (before treatment started), 1, 2, 4, 6, 7, 8, 10, 11 and 12, in order to measure P50 values.
# C57BL/6 mice [8] = assay: Tolerability of intraperitoneal injection in mice; format: in vivo
# circulating RBC [9] = assay: P50 shift of circulating RBC after (intraperitoneal) injection in mice; details: for P50 Shift % 2 h, Mean +/− SD / P50 Shift % 24 h, Mean +/− SD: 5 animals; for P50 Shift % 2 h / P50 Shift % 24 h: single animals
# [10] = dead piglets after lethal iv dose
structure (smiles),measurement,setting,value
"O=P(O)(O)O[C@H]1[C@H](OP(=O)(O)O)[C@@H](OP(=O)(O)O)[C@H](OP(=O)(O)O)[C@@H](OP(=O)(O)O)[C@H]1OP(=O)(O)O [IHP, inositol hexaphosphate, reference compound]",P50 of IHP-modified RBCs,human RBCs,approximately 50 torr
same,RBC × 10^6/mm3,RBC [1],9.6 × 10^6/mm3
same,P50 7 d %,"circulating RBC [2]; P50 shift on day 7, single mice, oral 27 mM for 4 days",3%
same,P50 10 d %,circulating RBC [2]; oral 27 mM for 4 days,0%
same,shift of the ODC,"circulating RBC [2]; oral in drinking water, same concentration as kf111",absence of shift
same,equiv of ammonium ions required to reach Kos(in serum) of 1,[3],8 equiv
same,RBC × 10^6/mm3,RBC [4],10.77 × 10^6/mm3
"O=P1([O-])OP(=O)([O-])O[C@H]2[C@H](O1)[C@@H]1OP(=O)([O-])OP(=O)([O-])O[C@@H]1[C@H]1OP(=O)([O-])OP(=O)([O-])O[C@H]21.[Na+].[Na+].[Na+].[Na+].[Na+].[Na+] [kf111, Hexasodium Salt of Myo-inositol 1,6:2,3:4,5-Tripyrophosphate]",number of other cells such as white blood cells,[5]; 1 g/kg iv,no major differences
same,reticulocytes,"[5]; 1 g/kg iv, day 14 (samples 5-14 days after injection), maximum",up to 3.0%
same,reticulocytes after decrease,"[5]; 1 g/kg iv, first 3 days (24 to 72 hrs) after injection",0.5%
same,hematocrit and number of RBC,"[5]; 1 g/kg iv, first days after injection",slight decrease
same,increase of the number of reticulocytes,"[5]; 1 g/kg iv, starting with day 3, for a period of 14 days",about 3%
same,amount of potassium and calcium in sera,[5]; [10],normal
same,"numbers of blood cells (hematocrit, white blood cells etc.)",[5]; [10],halved
same,sodium in sera after injection,"[5]; dead piglets, before injection 120-140 mmol/L",245 mmol/L
same,right shift of the P50-value,porcine RBCs,up to 20%
same,toxicity,[6]; even in a concentration of 160 mM,no toxicity
same,toxicity / tolerability,[6]; general statement,no toxicity and excellent tolerability
same,RBC × 10^6/mm3,RBC [1],6.60 × 10^6/mm3 and 5.73 × 10^6/mm3 and 6.35 × 10^6/mm3 and 5.64 × 10^6/mm3 and 5.45 × 10^6/mm3 and 8.76 × 10^6/mm3 and 7.70 × 10^6/mm3 and 6.54 × 10^6/mm3
same,number of RBC,RBC [1]; mice having ingested the compound for 4 days,reduced significantly
same,number of white blood cells,RBC [1]; treated vs control groups,no major differences
same,harmfulness of iv injection,"piglets; 1 g/kg body weight, injected slowly (at least 10 min)",not harmful
same,outcome of iv injection of almost saturated solution,"piglets; 27 g/100 ml, 1.5 g/kg planned over 20 minutes, two piglets",Both piglets died
same,dose that can be injected iv without harmful effects,piglets; if injected slowly,up to 1 g kf111 per kg body weight
same,dose received at which piglets died,"piglets; iv, saturated solution",< 1.3 g/kg body weight
same,P50 10 d %,circulating RBC [2]; oral 27 mM for 4 days,10% and 6% and 12% and 16% and 8% and 11% and 9%
same,right shift of P50,"circulating RBC [2]; oral, 20 g/L (27 mM) in drinking water over 4 days, maximum",up to 31%
same,lysis of RBCs,whole blood; in vitro incubation with whole blood,never occurred; also recorded: no lysis of RBCs was observed
same,"right shift in the Hb-O2 dissociation curve, all blood samples","whole blood; whole blood of human, mouse and pig, 60 mM",up to 40%
same,P50 Increase %,mouse whole blood; 1:1,29%
same,P50 mm Hg,"mouse whole blood; 1:1, control 36.7",47.4 mm Hg
same,P50 Increase %,human whole blood; 1:1,39%
same,P50 mm Hg,"human whole blood; 1:1, control 22.1",30.8 mm Hg
same,P50 Increase %,pig whole blood; 1:1,40%
same,P50 mm Hg,"pig whole blood; 1:1, control 32.2",45.2 mm Hg
same,harmfulness when applied orally,C57BL/6 mice [7],not harmful
same,tolerability in mice,C57BL/6 mice [8]; concentration of (up to) 120 mM,well tolerated
same,tolerability in mice,"C57BL/6 mice [8]; ip, concentrations up to 150 mM",well tolerated
same,RBC × 10^6/mm3,RBC [4],9.35 × 10^6/mm3 and 8.60 × 10^6/mm3 and 8.95 × 10^6/mm3 and 8.88 × 10^6/mm3 and 8.70 × 10^6/mm3 and 8.73 × 10^6/mm3 and 7.65 × 10^6/mm3 and 7.80 × 10^6/mm3
same,"right shift of the ODC of circulating RBC, % of the basal value",circulating RBC [9]; after ip injection,31%
same,"P50 Shift % 2 h, Mean +/− SD",circulating RBC [9]; ip 45 mM,11.8 +/− 1.16%
same,P50 Shift % 2 h,circulating RBC [9]; ip 45 mM,13% (2×) and 10% and 12% and 11%
same,"P50 Shift % 24 h, Mean +/− SD",circulating RBC [9]; ip 45 mM,13.6 +/− 1.02%
same,P50 Shift % 24 h,circulating RBC [9]; ip 45 mM,14% (2×) and 12% and 13% and 15%
same,"P50 Shift % 2 h, Mean +/− SD",circulating RBC [9]; ip 60 mM,16.9 +/− 3.48%
same,P50 Shift % 2 h,circulating RBC [9]; ip 60 mM,12% and 14% and 17% and 21% and 20.5%
same,"P50 Shift % 24 h, Mean +/− SD",circulating RBC [9]; ip 60 mM,17.2 +/− 2.1%
same,P50 Shift % 24 h,circulating RBC [9]; ip 60 mM,14% and 16% and 17% and 20% and 19%
same,"P50 Shift % 2 h, Mean +/− SD",circulating RBC [9]; ip 120 mM,26.0 +/− 2.28%
same,P50 Shift % 2 h,circulating RBC [9]; ip 120 mM,28% and 29% and 24% and 26% and 23%
same,"P50 Shift % 24 h, Mean +/− SD",circulating RBC [9]; ip 120 mM,24.8 +/− 2.7%
same,P50 Shift % 24 h,circulating RBC [9]; ip 120 mM,28% (2×) and 22% (2×) and 24%
same,"P50 Shift % 2 h, Mean +/− SD",circulating RBC [9]; ip 150 mM,27.0 +/− 1.78%
same,P50 Shift % 2 h,circulating RBC [9]; ip 150 mM,26% (2×) and 28% and 30% and 25%
same,"P50 Shift % 24 h, Mean +/− SD",circulating RBC [9]; ip 150 mM,25.8 +/− 2.78%
same,P50 Shift % 24 h,circulating RBC [9]; ip 150 mM,25% and 26% and 31% and 24% and 23%
